Test results: patent US12691101B2, “Compound and method for preventing or treating of respiratory diseases comprising the same as an active ingredient” (YONSEI UNIVERSITY, UNIVERSITY - INDUSTRY FOUNDATION (UIF), priority 2019, dated 2026)

target: T1, human wild-type (WT)-pendrin (Homo sapiens, UniProt O43511); experiment: Pendrin-mediated Cl^−/I^− exchange activity, YFP fluorescence in CHO-K1 cells; type: cell-based; conditions: CHO-K1, 30 μM; read-out: Pendrin inhibitory activity at 30 μM (%)
T1 construct: expressed in transfected cells
T1 sequence (O43511 1-780): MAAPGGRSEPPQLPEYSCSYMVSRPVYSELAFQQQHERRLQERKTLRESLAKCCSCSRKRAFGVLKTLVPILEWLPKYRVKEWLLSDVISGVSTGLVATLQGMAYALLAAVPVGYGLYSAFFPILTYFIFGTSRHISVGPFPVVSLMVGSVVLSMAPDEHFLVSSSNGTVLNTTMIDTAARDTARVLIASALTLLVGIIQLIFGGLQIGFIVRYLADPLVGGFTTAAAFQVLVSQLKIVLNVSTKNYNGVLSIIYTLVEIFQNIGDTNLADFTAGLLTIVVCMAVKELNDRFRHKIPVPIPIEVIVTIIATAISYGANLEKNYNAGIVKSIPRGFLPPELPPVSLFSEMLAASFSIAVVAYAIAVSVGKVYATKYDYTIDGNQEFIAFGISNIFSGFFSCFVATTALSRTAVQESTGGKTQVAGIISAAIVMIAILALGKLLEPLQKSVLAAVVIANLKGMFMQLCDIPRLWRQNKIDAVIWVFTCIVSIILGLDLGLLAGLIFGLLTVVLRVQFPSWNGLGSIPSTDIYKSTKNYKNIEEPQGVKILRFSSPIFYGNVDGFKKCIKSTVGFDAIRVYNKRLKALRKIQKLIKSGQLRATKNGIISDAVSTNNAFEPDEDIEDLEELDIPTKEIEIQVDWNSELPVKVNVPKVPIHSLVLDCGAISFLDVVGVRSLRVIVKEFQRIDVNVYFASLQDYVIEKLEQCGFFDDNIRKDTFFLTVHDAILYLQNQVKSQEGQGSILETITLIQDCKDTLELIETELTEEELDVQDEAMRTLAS

inhibition at 30 µM [%] | SMILES
21.3 | CCCc1ccc(C2=NC(=Cc3cccs3)C(=O)O2)cc1 [F144, 2-(4-Propylphenyl)-4-(thiophen-2-ylmethylene)oxazol-5(4H)-one]
53.8 | CC(C)c1ccc(C2=NC(=Cc3cccs3)C(=O)O2)cc1 [F46, 2-(4-Isopropylphenyl)-4-(thiophen-2-ylmethylene)oxazol-5(4H)-one]
1.9 | Cc1ccc(C2=NC(=Cc3cn(S(=O)(=O)N(C)C)c4ccccc34)C(=O)O2)cc1 [F76, N,N-Dimethyl-3-((5-oxo-2-(p-tolyl)oxazol-4(5H)-ylidene)methyl)-1H-indole-1-sulfonamide]
2.8 | COC(=O)c1ccc(C2=NC(=Cc3cccs3)C(=O)O2)cc1 [F7, Methyl 4-(5-oxo-4-(thiophen-2-ylmethylene)-4,5-dihydrooxazol-2-yl)benzoate]
3.4 | CC(=O)Nc1ccc(C2=NC(=Cc3ccc(-n4cncn4)cc3)C(=O)O2)cc1 [F134, N-(4-(4-(4-(1H-1,2,4-thiazol-1-yl)benzylidene)-5-oxo-4,5-dihydrooxazol-2-yl)phenyl)acetamide]
2.6 | O=C1OC(c2ccc(C(F)(F)F)cc2)=NC1=Cc1cccs1 [F1, 4-(thiophen-2-ylmethylene)-2-(4-(trifluoromethyl)phenyl)oxazol-5 (4H)-one]
3.7 | Cn1cccc1C=C1N=C(c2ccc(C(C)(C)C)cc2)OC1=O [F6, 2-(4-(tert-butyl)phenyl)-4-((1-methyl-1H-pyrrol-2-yl)methylene)oxazol-5 (4H)-one]
3.7 | COC(=O)c1ccc(C2=NC(=Cc3ccsc3)C(=O)O2)cc1 [F32, Methyl 4-(5-oxo-4-(thiophen-3-ylmethylene)-4,5-dihydrooxazol-2-yl)benzoate]
33.2 | CC(C)c1ccc(C2=NC(=Cc3ccsc3)C(=O)O2)cc1 [F47, 2-(4-Isopropylphenyl)-4-(thiophen-3-ylmethylene)oxazol-5(4H)-one]
2.3 | CC(=O)Nc1ccc(C2=NC(=Cc3ccc(N(C)C)s3)C(=O)O2)cc1 [F108, N-(4-(4-((5-(dimethylamino)thiophen-2-yl)methylene)-5-oxo-4,5-dihydrooxazol-2-yl)phenyl) acetamide]
2.6 | CC(=O)Nc1ccc(S(=O)(=O)Oc2ccccc2C=C2N=C(c3ccc(Cl)cc3)OC2=O)cc1 [F77, 2-((2-(4-Chlorophenyl)-5-oxooxazol-4(5H)-ylidene)methyl)phenyl4-acetamido benzenesulfonate]

More lines, now with the values behind:

SMILES | inhibition at 30 µM [%]
CC(C)c1ccc(C2=NC(=Cc3csc4ccccc34)C(=O)O2)cc1 [F16, 4-(Benzo[b]thiophen-3-ylmethylene)-2-(4-isopropylphenyl)oxazol-5(4H)-one] | 3.1
O=C(O)C(=Cc1cccs1)NC(=O)c1ccc(OC(F)F)cc1 [G39, 2-(4-(Difluoromethoxy)benzamido)-3-(thiophen-2-yl)acrylate] | 3.2
CSc1ccc(C=C2N=C(c3ccc(C(C)(C)C)cc3)OC2=O)cc1 [F43, 2-(4-(tert-butyl)phenyl)-4-(4-(methylthio)benzylidene)oxazol-5 (4H)-one] | 5.4
CC(C)Oc1ccc(C2=NC(=Cc3cnn(Cc4ccccc4)c3)C(=O)O2)cc1 [F130, 4-((1-Benzyl-1H-pyrazol-4-yl)methylene)-2-(4-isopropoxyphenyl)oxazol-5 (4H)-one] | 2.7
O=C1OC(c2ccccc2)=NC1=Cc1cccs1 [F61, 2-Phenyl-4-(thiophen-2-ylmethylene)oxazol-5(4H)-one] | 2.2
CCCc1ccc(C2=NC(=Cc3ccc[nH]3)C(=O)O2)cc1 [F143, 4-((1H-pyrrol-2-yl)methylene)-2-(4-propylphenyl)oxazol-5(4H)-one] | 87.4
COC(=O)C(=Cc1ccc[nH]1)NC(=O)c1ccc(C(F)(F)F)cc1 [G15, Methyl 3-(1H-pyrrol-2-yl)-2-(4-(trifluoromethyl)benzamido)acrylate] | 3.4
O=C1OC(c2cccs2)=NC1=Cc1cccs1 [F89, 2-(Thiophen-2-yl)-4-(thiophen-2-ylmethylene)oxazol-5(4H)-one] | 2.8
Cc1ccc(C=C2N=C(c3cccs3)OC2=O)s1 [F115, 4-((5-Methylthiophen-2-yl)methylene)-2-(thiophen-2-yl)oxazol-5(4H)-one] | 2.8
COc1cc(C2=NC(=Cc3cccs3)C(=O)O2)cc(OC)c1OC [F94, 4-(Thiophen-2-ylmethylene)-2-(3,4,5-trimethoxyphenyl)oxazol-5(4H)-one] | 1.9
CCCCc1ccc(C(=O)NC(=Cc2ccsc2)C(=O)O)cc1 [G29] | 81.7
O=C1OC(c2ccc3ccccc3c2)=NC1=Cc1cccs1 [F52, 2-(Naphthalen-2-yl)-4-(thiophen-2-ylmethylene)oxazol-5(4H)-one] | 4.1
COc1ccccc1C1=NC(=Cc2ccc(OCC(N)=O)cc2)C(=O)O1 [F128, 2-(4-((2-(2-methoxyphenyl)-5-oxooxazol-4(5H)-ylidene)methyl)phenoxy)acetamide] | 1.9
CCCc1ccc(C2=NC(=Cc3ccsc3)C(=O)O2)cc1 [F145, 2-(4-Propylphenyl)-4-(thiophen-3-ylmethylene)oxazol-5 (4H)-one] | 20.8
COc1ccccc1C1=NC(=Cc2ccc(Br)s2)C(=O)O1 [F117, 4-((5-Bromothiophen-2-yl)methylene)-2-(2-methoxyphenyl)oxazol-5(4H)-one] | 2.3
Cc1ccc(C=C2N=C(c3ccc(C)s3)OC2=O)s1 [F119, 2-(5-methylthiophen-2-yl)-4-((5-methylthiophen-2-yl)methylene)oxazol-5 (4H)-one] | 1.7
O=C1OC(c2ccc(-c3ccccc3)cc2)=NC1=Cc1cccnc1 [F42, 2-([1,1′-biphenyl]-4-yl)-4-(pyridin-3-ylmethylene)oxazol-5(4H)-one] | 4.2
COc1cc(C2=NC(=Cc3cccs3)C(=O)O2)ccc1OC(F)F [F102, 2-(4-(Difluoromethoxy)-3-methoxyphenyl)-4-(thiophen-2-ylmethylene)oxazol-5 (4H)-one] | 2.7
O=C1OC(c2ccc3c(c2)OCO3)=NC1=Cc1ccc(N2CCCCC2)s1 [F100, 2-(Benzo[d][1,3]dioxoyl-5-yl)-4-((5-(piperidin-1-yl)thiophen-2-yl)methylene)oxazol-5(4H)-one] | 2.5
Cc1ccc(C2=NC(=Cc3cccs3)C(=O)O2)cc1I [F63, 2-(3-Iodo-4-methylphenyl)-4-(thiophen-2-ylmethylene)oxazol-5(4H)-one] | 1.6
CCC(/C=C1\Sc2ccc(OC)cc2N1CC)=C1N=C(c2ccccc2)OC1=O [F68, 4-((Z)-1-(3-ethyl-5-methoxybenzo[d]thiazol-2(3H)-ylidene)butan-2-ylidene)-2-phenyloxazol-5(4H)-one] | 4.3
CCCCCCc1ccc(C(=O)NC(=Cc2cccs2)C(=O)O)cc1 [G37, 2-(4-Hexylbenzamido)-3-(thiophen-2-yl)acrylate] | 97.9
CC(C)(C)c1ccc(C(=O)NC(=Cc2ccsc2)C(=O)O)cc1 [G8, 2-(4-(tert-butyl)benzamido)-3-(thiophen-3-yl)acrylate] | 68.8

same assay, conditions: compounds showing pendrin inhibitory activity of 50% or more at 30 μM; read-out: IC50

IC50 [µM] | SMILES
22.7 ± 2.48 | CC(C)c1ccc(C2=NC(=Cc3cccs3)C(=O)O2)cc1 [F46, 2-(4-Isopropylphenyl)-4-(thiophen-2-ylmethylene)oxazol-5(4H)-one]
5.3 ± 0.69 | CCCc1ccc(C2=NC(=Cc3ccc[nH]3)C(=O)O2)cc1 [F143, 4-((1H-pyrrol-2-yl)methylene)-2-(4-propylphenyl)oxazol-5(4H)-one]
16.7 ± 1.87 | CCCCc1ccc(C(=O)NC(=Cc2ccsc2)C(=O)O)cc1 [G29]
8.2 ± 0.79 | CCCCCCc1ccc(C(=O)NC(=Cc2cccs2)C(=O)O)cc1 [G37, 2-(4-Hexylbenzamido)-3-(thiophen-2-yl)acrylate]
20.2 ± 2.12 | CC(C)(C)c1ccc(C(=O)NC(=Cc2ccsc2)C(=O)O)cc1 [G8, 2-(4-(tert-butyl)benzamido)-3-(thiophen-3-yl)acrylate]
